Assay results taken from patent US20090028840A1, “Compositions For Preventing Or Treating Arthritis Comprising Lactic Acid Bacteria and Collangen As Active Ingredients” (Gwangju Institute of Sciecne and Technology, priority 2005, published 2009).

What was measured:
[1] = test system: collagen-induced arthritis (CIA); experiment: Comparative tests for treatment efficacy in collagen-induced arthritis (CIA) rats; type: in vivo, Lewis rat; settings: acute phase (until 35 days after immunization), FIGS. 3 and 4
[2] = test system: infiltration of lymphocytes into joint tissues; experiment: Histological analysis of ankle joints of CIA rats (hematoxylin and eosin); type: in vivo, rat; settings: 35 days after immunization, FIG. 5
From the text: Joints dissected were washed with PBS and fixed for 24 hr in 4% paraformaldehyde, followed by decalcification for 2-3 days in decalcification solution (Merck). The decalcified joint tissues were embedded in paraffin, sectioned to […], deparaffinized, stained with hematoxylin and eosin, and observed under microscope. A basic dye, hematoxylin binds to nucleus containing negative-charged DNA and RNA molecules and an acidic dye, eosin binds to cytoplasmic proteins and collagen with positive charge.

Compound	treatment efficacy on arthritis during acute phase [1]	infiltration of lymphocytes (immune cells) into joints [2]
CN(Cc1cnc2nc(N)nc(N)c2n1)c1ccc(C(=O)N[C@@H](CCC(=O)O)C(=O)O)cc1 [MTX, methotrexate]	better until acute phase (until 35 days after immunization) than the present composition	little or no occurrence of the infiltration of lymphocytes
Lactobacillus casei [lactic acid bacteria]	low	–
